Test results reported in the NIST ThermoML archive (doi:10.1016/j.jct.2018.06.022).

Conditions: Liquid, Closed cell (Static) method

O=C=O [carbon dioxide]
Conditions	vapor or sublimation pressure [kPa]
218.15 K	552.5
233.15 K	1004.4
243.15 K	1428
258.15 K	2293.7
273.15 K	3484.6
288.19 K	5089.6
302.94 K	7171.2
